Drawing on PubChem BioAssay (NCI), this text covers GI50 and TGI for nine compounds.

Among the test systems are A549 NSCLC; EKVX NSCLC; MDA-MB-231 breast; OVCAR-8 ovarian; SF-268 CNS; SK-OV-3 ovarian; SN12C renal; SNB-75 CNS.
Holding throughout (test): NCI anticancer screen, dose series, 48 h

Structures are written as SMILES.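 Where inhibition never reached the appropriate level, the endpoint shown equals the highest concentration tested. Otherwise, values were interpolated linearly from a five-concentration, 48-hour dose response in 96-well plates. Abbreviation: GI50, concentration required for 50% inhibition of growth. TGI is the concentration that stops growth completely.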

In the case of `Cc1ccc2c(C(C[N+](=O)[O-])c3cccs3)c(-c3ccccc3)[nH]c2c1` (stereo unspecified), the GI50 in the experiment on A549 NSCLC is 2.73 µM; in the experiment with EKVX NSCLC, 2 µM; in the experiment with MDA-MB-231 breast it was 1.65 µM; with OVCAR-8 ovarian, 3.55 µM; with SF-268 CNS it was 2.77 µM; with SK-OV-3 ovarian, 3.44 µM. Moreover, the GI50 in the experiment on SN12C renal is 1.89 µM; in the experiment on SNB-75 CNS it was 0.638 µM. The TGI in the experiment on A549 NSCLC was 15.1 µM; in the experiment on EKVX NSCLC, 14.9 µM; in the experiment on MDA-MB-231 breast, 6.31 µM; with OVCAR-8 ovarian, greater than 33.3 µM; in the experiment on SF-268 CNS, 11.5 µM; in the experiment with SK-OV-3 ovarian, 19.7 µM. The TGI in the experiment with SN12C renal worked out at 7.01 µM; in the experiment with SNB-75 CNS, 2.49 µM.

With `CCOc1ccc(S(=O)(=O)/N=C2\C=C(SCC(=O)O)C(=O)c3ccccc32)cc1`, the GI50 in the experiment on A549 NSCLC was 12.6 µM; in the experiment with EKVX NSCLC, 3.29 µM; in the experiment with MDA-MB-231 breast, 2.84 µM; in the experiment with OVCAR-8 ovarian it was 2.82 µM; with SF-268 CNS, 2.95 µM; with SK-OV-3 ovarian, 15.2 µM. Also, the GI50 in the experiment on SN12C renal was 2.15 µM; with SNB-75 CNS, 2.5 µM. For the same compound, the TGI in the experiment on A549 NSCLC turned out to be 34.9 µM; in the experiment with EKVX NSCLC, 11.3 µM; with MDA-MB-231 breast, 12.2 µM; in the experiment on OVCAR-8 ovarian it was 10.3 µM; in the experiment on SF-268 CNS, 12.2 µM; in the experiment on SK-OV-3 ovarian, 29.7 µM. The TGI turned out to be 4.97 µM in the experiment with SN12C renal and 4.96 µM with SNB-75 CNS.

`C#Cc1cnc(=O)n(C2CC(O)C(CO)O2)c1` (stereo unspecified): the GI50 in the experiment with A549 NSCLC, with EKVX NSCLC, in the experiment on MDA-MB-231 breast, in the experiment with OVCAR-8 ovarian, with SF-268 CNS and in the experiment with SK-OV-3 ovarian was greater than 100 µM in each case. Besides, the GI50 with SN12C renal and with SNB-75 CNS was greater than 100 µM each time. The TGI in the experiment with A549 NSCLC, in the experiment on EKVX NSCLC, in the experiment with MDA-MB-231 breast, in the experiment with OVCAR-8 ovarian, with SF-268 CNS and in the experiment on SK-OV-3 ovarian was greater than 100 µM throughout. Further, the TGI in the experiment with SN12C renal and in the experiment on SNB-75 CNS was greater than 100 µM in each case.

`COc1cc(/C=C\[N+](=O)[O-])ccc1O`: the GI50 in the experiment on A549 NSCLC is 3.34 µM; with EKVX NSCLC, 11.8 µM; in the experiment on MDA-MB-231 breast, 2.6 µM; in the experiment with OVCAR-8 ovarian, 3.21 µM; in the experiment on SF-268 CNS, 3.44 µM; in the experiment with SK-OV-3 ovarian, 12.7 µM. The values for the GI50 with SN12C renal and in the experiment on SNB-75 CNS were 2.49 µM and 3.35 µM, respectively. Moreover, the TGI in the experiment with A549 NSCLC came out at 12.7 µM; in the experiment on EKVX NSCLC, 24.6 µM; with MDA-MB-231 breast, 8.94 µM; in the experiment on OVCAR-8 ovarian, 12.1 µM; in the experiment on SF-268 CNS, 12.8 µM; in the experiment on SK-OV-3 ovarian it was 25.9 µM. Besides, the TGI in the experiment on SN12C renal turned out to be 7.74 µM; in the experiment with SNB-75 CNS, 17.2 µM.

`CC(C)(C)c1cc(O)c(O)c(C(C)(C)C)c1`: the GI50 with A549 NSCLC is 3.49 µM; in the experiment on EKVX NSCLC, 3.76 µM; in the experiment on MDA-MB-231 breast, 8.55 µM; in the experiment on OVCAR-8 ovarian, 3.48 µM; in the experiment on SF-268 CNS it was 4.77 µM; in the experiment on SK-OV-3 ovarian, 10.3 µM. Besides, the figures for the GI50 in the experiment on SN12C renal and with SNB-75 CNS were 4.82 µM and 4.86 µM, respectively. The TGI was 12.2 µM with A549 NSCLC; 17.5 µM with EKVX NSCLC; 23.2 µM in the experiment with MDA-MB-231 breast; 16.4 µM with OVCAR-8 ovarian; 16.1 µM in the experiment with SF-268 CNS; 22.6 µM in the experiment with SK-OV-3 ovarian. For the same compound, the figures for the TGI with SN12C renal and in the experiment on SNB-75 CNS were 21.3 µM and 19 µM, respectively.

Take `CC(CO)(CO)N=Cc1cc(I)cc(I)c1O`: the TGI is greater than 100 µM with A549 NSCLC; 54.2 µM with EKVX NSCLC; 38.7 µM in the experiment with MDA-MB-231 breast; 48.5 µM with OVCAR-8 ovarian; 36.5 µM in the experiment on SF-268 CNS; 41.9 µM with SK-OV-3 ovarian. The TGI in the experiment with SN12C renal is 31.4 µM; in the experiment with SNB-75 CNS, 34.8 µM.

In the case of `COc1cc(-n2cc(-c3ccc(Cl)c(Cl)c3)nc2SCc2ccccc2)cc(OC)c1OC`, the GI50 with A549 NSCLC, in the experiment on EKVX NSCLC, with MDA-MB-231 breast, in the experiment with OVCAR-8 ovarian, in the experiment with SF-268 CNS and in the experiment with SK-OV-3 ovarian was greater than 100 µM throughout. The GI50 in the experiment with SN12C renal and with SNB-75 CNS was greater than 100 µM in each case. Also, the TGI with A549 NSCLC, in the experiment with EKVX NSCLC, in the experiment with MDA-MB-231 breast, in the experiment on OVCAR-8 ovarian, with SF-268 CNS and in the experiment on SK-OV-3 ovarian was greater than 100 µM in each case. The TGI in the experiment on SN12C renal and in the experiment on SNB-75 CNS was greater than 100 µM in each case.

`COc1ccc(C(=O)Nc2ncc(Cc3ccc(Cl)cc3)s2)cc1`: the GI50 in the experiment with A549 NSCLC is 0.0733 µM; with EKVX NSCLC, 0.26 µM; with MDA-MB-231 breast it was 0.176 µM; in the experiment on OVCAR-8 ovarian, 0.117 µM; in the experiment with SF-268 CNS, 0.3 µM; in the experiment with SK-OV-3 ovarian, 0.15 µM. The GI50 was 0.0946 µM in the experiment on SN12C renal and 0.0424 µM in the experiment with SNB-75 CNS. Besides, the TGI with A549 NSCLC was greater than 100 µM; in the experiment with EKVX NSCLC, greater than 100 µM; with MDA-MB-231 breast it was 47.3 µM; in the experiment on OVCAR-8 ovarian, greater than 100 µM; with SF-268 CNS, greater than 100 µM; in the experiment with SK-OV-3 ovarian, greater than 100 µM. For the same compound, the TGI with SN12C renal and in the experiment on SNB-75 CNS was greater than 100 µM throughout.

Take `COc1ccc(/C=C/C=C(/C#N)C(N)=S)cc1`: the GI50 was 33.1 µM with A549 NSCLC; 77.3 µM in the experiment on EKVX NSCLC; 26.9 µM in the experiment on MDA-MB-231 breast; 21.5 µM in the experiment with OVCAR-8 ovarian; 28 µM in the experiment with SF-268 CNS; 96.1 µM in the experiment on SK-OV-3 ovarian. The GI50 with SN12C renal was 35.4 µM; with SNB-75 CNS, 29.7 µM. For the same compound, the TGI in the experiment with A549 NSCLC was greater than 100 µM; in the experiment on EKVX NSCLC it was greater than 100 µM; with MDA-MB-231 breast it was 87.4 µM; with OVCAR-8 ovarian, 54.3 µM; in the experiment with SF-268 CNS it was greater than 100 µM; in the experiment with SK-OV-3 ovarian, greater than 100 µM. For the same compound, the TGI in the experiment on SN12C renal is greater than 100 µM; in the experiment with SNB-75 CNS it was 99.6 µM.
